Measured values taken from US8153385B2, “Target protein and target gene in drug designing and screening method” (Reverse Proteomics Research Institute Co., Ltd., priority 2004, dated 2012).

Target: T1, FLJ13397 clone-derived protein (CARP) (Homo sapiens, UniProt Q9H8M7)
T1 construct: A human full-length cDNA clone was expressed as a protein with an N-terminal His tag; His tag (pDEST17 Gateway vector) (N); made in house; host or cells: Escherichia coli BL21star(DE3)pLysS
T1 sequence (Q9H8M7 1-445): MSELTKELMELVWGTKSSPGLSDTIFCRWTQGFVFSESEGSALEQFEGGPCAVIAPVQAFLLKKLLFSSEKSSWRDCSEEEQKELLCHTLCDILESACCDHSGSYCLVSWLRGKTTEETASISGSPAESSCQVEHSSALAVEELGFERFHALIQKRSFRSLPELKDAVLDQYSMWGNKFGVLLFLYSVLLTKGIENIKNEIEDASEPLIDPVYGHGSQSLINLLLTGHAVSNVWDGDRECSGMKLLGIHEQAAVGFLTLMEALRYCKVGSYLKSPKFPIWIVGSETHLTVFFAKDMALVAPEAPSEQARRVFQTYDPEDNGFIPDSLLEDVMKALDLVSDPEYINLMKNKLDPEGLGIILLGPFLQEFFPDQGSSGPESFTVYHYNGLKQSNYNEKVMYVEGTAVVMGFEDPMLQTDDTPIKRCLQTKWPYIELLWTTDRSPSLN
Assay: SEC/MS (size exclusion chromatography / mass analysis) interaction analysis between FLJ13397 clone-derived protein and compounds
Assay type: binding
Description: BP-reaction was performed on human full-length cDNA clone and the cloning vector Gateway pDONR201 by the PCR cloning method using the Invitrogen Gateway system to yield an entry clone. LR-reaction was performed on this entry clone with the destination vector pDEST17 (Gateway System) and LR Clonase at 25° C. for 60 minutes to yield an expression plasmid. Escherichia coli competent cell BL21star(DE3)pLysS were transformed with this expression plasmid, a clone incorporating the expression vector was selected, and a frozen stock was prepared. The transformant was inoculated into LB medium and precultured, after which it was transferred into SB medium and cultured to induce the expression by IPTG, and the cells were stored frozen.
A human full-length cDNA clone was expressed as a protein with an N-terminal His tag. This clone was purified using BioRobot 8000 (Qiagen) or ACTA Crystal (Amersham). […] In the purification with ACTA Crystal, affinity purification using a HisTrap HP column was followed by gel filtration purification using the Gel Filtration Column HiLoad 16/60 or a 10/30 Superdex 75 prep grade column. The purified fraction was used for interaction analysis after being subjected to SDS-PAGE to verify the estimated molecular weight and purity.
To analyze the interactions between commonly used drugs and proteins expressed from human full-length cDNA clones while keeping both the proteins and the compounds in non-modified, non-immobilized state, size exclusion chromatography (SEC) and mass analysis were used in combination (FIGS. 1 and 2). The specific procedures are shown below.
The compound-protein mixture prepared in step 1 was subjected to chromatography using an SEC column, the compound and the protein were separated by SEC, and the bound compound or compound that interacted with the protein in the protein fraction was analyzed using a mass analyzer.
Protein concentrations were measured using BCA Protein Assay (PIERCE), in consideration of the purity calculated by SDS-PAGE.
Mass analysis was performed using LCQ DECA XP (Thermoelectron) or Q-TOFmicro (Micromass), equipped with an ESI probe. The LC pump used was Agilent 1100 (Yokogawa Analytical Systems), and the autosampler used was HTC-PAL (CTC Analytics) equipped with a cooling stacker.
In the SEC method using a 384-well spin column, Unifilter 100 (Whatman), packed with 10 μL (dry volume) of Bio-Gel P6 (BIO-RAD) and swollen with milliQ water, was used as the SEC column. […] The SEC spin column was mounted on an acetonitrile-aliquoted 384-well U-bottom plate and centrifuged; the SEC spin column filtrate, which is a protein fraction, was retrieved in 50% acetonitrile. The protein precipitate produced by the acetonitrile was removed via centrifugation and filtration for protein removal; the resulting filtrate was concentrated by centrifugation and re-dissolved in 10 μL of 50% methanol to obtain a mass analysis sample. The mobile phase supplied to the mass analyzer was 0.1% formic acid/50% methanol solution in the positive ion mode, and 0.1% ammonia/50% methanol solution in the negative ion mode; these mobile phases were used at a flow rate of 40 μL/min. 2-μL of mass analysis samples were injected using an autosampler at 2-Minute intervals; the mass spectral intensity of the compound was measured to obtain the spectral intensity of the pharmaceutical compound contained in the SEC spin column filtrate (protein fraction eluted from SEC).

[1] = compound 1 μM, protein 0 μM (protein-free reference)
[2] = compound 1 μM, protein 23.75 μM
[3] = compound 10 μM, protein 0 μM (protein-free reference)
[4] = compound 10 μM, protein 23.75 μM
[5] = compound 10 μM, protein 47.5 μM
[6] = compound 100 μM, protein 0 μM (protein-free reference)
[7] = compound 100 μM, protein 23.75 μM
[8] = compound 100 μM, protein 47.5 μM
[9] = compound 250 μM, protein 0 μM (protein-free reference)
[10] = compound 250 μM, protein 23.75 μM
[11] = compound 250 μM, protein 47.5 μM

SMILES	spectrum intensity of the extracted mass range (compound in SEC spin column filtrate) [1]	spectrum intensity of the extracted mass range (compound in SEC spin column filtrate) [2]	spectrum intensity of the extracted mass range (compound in SEC spin column filtrate) (compound 1 μM, protein 47.5 μM)	spectrum intensity of the extracted mass range (compound in SEC spin column filtrate) [3]	spectrum intensity of the extracted mass range (compound in SEC spin column filtrate) [4]	spectrum intensity of the extracted mass range (compound in SEC spin column filtrate) [5]	spectrum intensity of the extracted mass range (compound in SEC spin column filtrate) [6]	spectrum intensity of the extracted mass range (compound in SEC spin column filtrate) [7]	spectrum intensity of the extracted mass range (compound in SEC spin column filtrate) [8]	spectrum intensity of the extracted mass range (compound in SEC spin column filtrate) [9]	spectrum intensity of the extracted mass range (compound in SEC spin column filtrate) [10]	spectrum intensity of the extracted mass range (compound in SEC spin column filtrate) [11]	interaction with the FLJ13397-expressed protein (judgement) (judged from increase of spectrum intensity with doses of compound and protein)
CCCOc1ccc2nc(NC(=O)OC)[nH]c2c1 [Oxibendazole]	570160	595458	529117	525337	3533115	9671167	1292692	7303166	8921904	2449247	20401030	13559202	
CC(C)(C)c1ccc(C(O)CCCN2CCC(C(O)(c3ccccc3)c3ccccc3)CC2)cc1 (stereo not shown) [Terfenadine]	1817431	1889743	1281933	2641416	9434699	8393491	241452949	175843248	549040113	644365611	1389061661	1700398168	concentration-dependent interaction
c1ccc2[nH]c(-c3cscn3)nc2c1 [Thiabendazole]	61442947	42216896	47595391	21903023	45510612	41434122	60344905	64811390	63585895	40530147	93902905	125101370	
OC(c1ccccc1)(c1ccccc1)C1CCNCC1 [α,α-Diphenyl-4-piperidinomethanol]	1354498	1217276	1961004	14109120	12131847	15743409	106849236	219345185	287013305	400374746	620399620	1037919	
